Tests used:
[1] = system: Arabidopsis thaliana plants (col-0); assay: Discontinuous chlorophyll fluorescence imaging of ΦII with red actinic light after coronatine spraying; format: in vivo; details: 5 μM sprayed, monochromatic (red) actinic light, 1, 4, 8 and 24 hours after treatment
Method: Arabidopsis thaliana plants (col-0) were grown on soil at 22° C. day temperature and 18° C. night temperature, 50% humidity and an intensity of μmol photons m^−2 s^−1 with an 16:8 day:night cycle. Chlorophyll a fluorescence images of steady state (FS) and the fluorescence maximum at steady state (FM′) were collected at growth light intensity and in the absence or presence of saturating illumination, respectively. These images were used to generate images of ΦII, a measure of photosynthetic efficiency on the day of and after treatment (by spraying) with 5 μM coronatine (cor) or water (control). Coronatine is a compound produced by a bacterial plant pathogen. As a chemical analog of jasmonic acid, it elicits a stress response, which includes differential induction and repression of classes of photosynthesis associated genes (PAGs). […] For discontinuous imaging, plants were maintained in the growth chamber where they were treated and transferred to and from the fluorescence imager for measurements. For in situ imaging, the plants were allowed to readjust after transfer to the new chamber with white LED lighting for at least 24 hours prior to treatment and were kept in the chamber for the duration of experiment.

[2] = system: Arabidopsis thaliana plants (col-0); assay: Continuous in situ chlorophyll fluorescence imaging of ΦII with white actinic LED after coronatine spraying; format: in vivo; details: 5 μM sprayed
Method: Arabidopsis thaliana plants (col-0) were grown on soil at 22° C. day temperature and 18° C. night temperature, 50% humidity and an intensity of μmol photons m^−2 s^−1 with an 16:8 day:night cycle. Chlorophyll a fluorescence images of steady state (FS) and the fluorescence maximum at steady state (FM′) were collected at growth light intensity and in the absence or presence of saturating illumination, respectively. These images were used to generate images of ΦII, a measure of photosynthetic efficiency on the day of and after treatment (by spraying) with 5 μM coronatine (cor) or water (control). Coronatine is a compound produced by a bacterial plant pathogen. As a chemical analog of jasmonic acid, it elicits a stress response, which includes differential induction and repression of classes of photosynthesis associated genes (PAGs). To determine if there were immediate and/or sustained effects on photosynthesis, imaging was performed discontinuously in an imager that used monochromatic (red) actinic light or continuously in situ in a growth chamber outfitted with a white actinic LED imaging system. For discontinuous imaging, plants were maintained in the growth chamber where they were treated and transferred to and from the fluorescence imager for measurements. For in situ imaging, the plants were allowed to readjust after transfer to the new chamber with white LED lighting for at least 24 hours prior to treatment and were kept in the chamber for the duration of experiment.
Imaging in situ with white LED actinic illumination minimized the stress of moving a plant from its growth environment to the instrument and with automated image capture facilitated collection of data at higher time resolution (FIG. 10). […] The effect is also heterogeneous, more strongly observed in some leaves or not occurring at all in other (younger) leaves.

## CC[C@H]1C=C(C(=O)N[C@@]2(C(=O)O)C[C@@H]2CC)[C@H]2CCC(=O)[C@H]2C1 [coronatine]
[1]
  ΦII (photosynthetic efficiency), treated vs untreated plants: no differences between treated and untreated plants
[2]; in situ imaging, second day after treatment (more recent studies, not shown)
  photosynthetic efficiency (ΦII) effect: the effect was not observed
[2]; white LED in situ imaging, early morning on the day after treatment (21 hours)
  photosynthetic efficiency (ΦII): large decrease in photosynthetic efficiency
[2]; white LED in situ imaging, mid-morning on the day after treatment (25 hours)
  photosynthetic efficiency (ΦII) effect: almost completely disappears
